One block for each compound: values may come before it.
What was measured:
[1] = test system: N‐acetyltransferase (NAT)1 enzyme; set-up: method as in unpublished data; details: ref unpublished data; cited from earlier work
[2] = test system: human abdominal skin explants; assay: Cutaneous distribution and mass balance of radioactivity in human skin explants; details: human skin; for % Radioactivity in culture media after 24 h / Mass balance (% of applied dose at end of incubation): 24 h; for Medium radioactivity / Skin radioactivity / Skin surface radioactivity: end of incubation (24 h), mean ± SD
Procedure: (§1) Human abdominal skin was obtained (with consent for research from a commercial supplier [L’Union Clinic, Rangueil hospital and Icelltis, Toulouse, France] with certified ethical procedures) from six male and 34 female healthy donors, 41 ± 11 years of age, undergoing cosmetic surgery. Abdominal skin was kept at 4°C during transports and placed in culture within 3 hours of surgery. Pig ear skin was a waste product of the meat industry (without hot steam treatment) from domestic pigs (female Pietrain breed, 6 months old, 80‐100 kg) obtained from a local slaughterhouse (Montauban, France). Ears were taken from the animals within 5 minutes of slaughter and were kept at 4°C during transport to the laboratory, which lasted a maximum of 2 hours. Pig skin samples were dried and then gently shaved.
(§2) The experiment and the preparation of the culture medium were performed under sterile conditions. Human and pig skin was cut with a dermatome to a thickness of 450 ± 50 μm. Skin punches were seeded dermal side down in polycarbonate Transwell® inserts from Corning Life Sciences (Avon, France; 4.16 cm^2 application area with an 8 μm pore size filter). […] The inserts were placed in a six‐well plate containing 1.5 mL culture medium and the skin explants incubated in a standard incubator at 37°C, under an atmosphere of 5% CO2 and 50 ± 10% relative humidity. The culture medium was Dulbecco's modified Eagle medium without phenol red supplemented with 8 mM L‐glutamine, 2 μg/mL streptomycin/penicillin, 25 ng/mL fungizone and 50 ng/mL gentamycin. Skin explants were incubated for 1 hour before application of the formulation.
(§3) The dosing volume was 10 μL/cm^2. For pig skin metabolism studies, which were carried out before the human skin experiments to ensure the analytics were optimal, 2.4 nmol/cm^2 of each chemical (only the ^14C‐labeled form) was applied on the skin and incubated for 24 hours for the measurement of metabolites in the medium. These tissues were further incubated for a total of 48 hours, with a replacement of the culture medium after 24 hours. This longer incubation time and the standard doses of 2.4 nmol/cm^2 were used to maximize the likelihood of the skin forming metabolites to develop analytical methods. The metabolites profiles in pig and human skin were compared in the medium sample at 24 hours of incubation. The metabolite profiles for the 48‐hour timepoint are not reported here since humans skin metabolism was measured at 24 hours only; however, for completeness, the distribution of radioactivity at the end of both pig (48 hours) and human (24 hours) skin incubations is reported. […] The doses were obtained by mixing radiolabeled and cold chemical. One replicate disc per donor and per dose was used. All chemicals were tested on four donors of pig and human skin, except for 2‐AAF and 4‐amino‐3‐nitrophenol (4‐A‐3‐NP), for which three donors were used. The medium was removed after 24 hours of incubation and stored at −20°C for analysis.
(§4) At the end of the experiment, the trans‐wells were dismantled and washed with appropriate solvent for each chemical. […] The cotton swabs were placed in 5 mL of appropriate solvent in a scintillation counting flask and placed in a sonicator bath for 20 minutes. Aliquots of 1 mL were counted by liquid scintillation, after addition of 15 mL of scintillation liquid. Tissue culture inserts were washed with 10 mL of appropriate solvent. One aliquot of 1 mL was counted by liquid scintillation, after addition of 15 mL of scintillation liquid. After media removal, wells were washed twice with 1 mL of the appropriate solvent. Washing solutions were counted by liquid scintillation, after addition of 15 mL of scintillation liquid.
(§5) Pig skin explants were digested using 3 mL Soluable (60°C for 24 hours) and counted by liquid scintillation. Skin extraction process was adapted according to the physicochemical properties of each chemical and its potential metabolites.

[3] = test system: human abdominal skin explants
Procedure: as §1, §2, §3
(§6) After centrifugation, a 100 μL aliquot of the extract was counted by liquid scintillation. The pellet was dissolved in 3 mL Soluable (60°C, 24 hours) and then counted by liquid scintillation.
(§7) Analysis of the chemicals and their metabolites in medium after 24 hours of incubation with pig and human skin was measured by radio‐high‐performance liquid chromatography (HPLC) using an HPLC 1100 Series, Agilent and a Flow Scintillation Analyzer, Radiomatic 610 TR, Perkin Elmer (Villebon‐sur‐Yvette, France). […] To confirm that metabolites were the same in pig and human skin, medium samples were co‐injected on the new column. The metabolites were identified by LC‐electrospray ionization‐HRMS (HPLC‐ESI‐HRMS) with a RSLC3000 HPLC system coupled to a LTQ‐Orbitrap XL mass spectrometer (Thermo Scientific). The HPLC analytical conditions for identification and quantification of the metabolites for each chemical are summarized in Supporting information Table S1.

pig ear skin explants [4] = test system: pig ear skin explants
Procedure: as §1, §2, §3, §6, §7

pig ear skin explants [5] = assay: Cutaneous distribution and mass balance of radioactivity in pig skin explants; details: pig skin; for % Radioactivity in culture media after 24 h / Mass balance (% of applied dose at end of incubation): 2.4 nmol/cm^2; for Mass balance (% of applied dose at end of incubation): 48 h; for Medium radioactivity / Skin radioactivity / Skin surface radioactivity: end of incubation (48 h), mean ± SD
Procedure: as §1, §2, §3, §4, §5

[6] = ref Chemspider (www.chemspider.com), cited from earlier work
skin explants = assay: Skin explant assay, radioactivity in culture medium bound to proteins; format: in vitro ADME; details: medium with 4% BSA; species not stated

% Radioactivity in culture media after 24 h [2]: 62.3 ± 3.4% | Mass balance (% of applied dose at end of incubation) [2]: 94.4 ± 3.0 % of applied dose | Medium radioactivity [2]: 62.3 ± 3.4 % of the applied dose | Skin radioactivity [2]: 28.6 ± 4.5 % of the applied dose | Skin surface radioactivity [2]: 3.6 ± 2.1 % of the applied dose | N‐acetylated metabolite ([3]; human skin incubations): not detected | Parent compound in the medium after 24 h ([3]; human skin, 24 h, mean ± SEM): 0.1 ± 0.06 % Applied dose | N‐acetylated metabolite (pig ear skin explants [4]; pig skin incubations): not detected | Parent compound in the medium after 24 h (pig ear skin explants [4]; pig skin, 24 h, mean ± SEM): 0.6 ± 0.2 % Applied dose | % Radioactivity in culture media after 24 h (pig ear skin explants [5]): 51.9 ± 6.7% | Mass balance (% of applied dose at end of incubation) (pig ear skin explants [5]): 96.0 ± 2.6 % of applied dose | Medium radioactivity (pig ear skin explants [5]): 69.9 ± 5.8 % of the applied dose | Skin radioactivity (pig ear skin explants [5]): 15.6 ± 5.3 % of the applied dose | Skin surface radioactivity (pig ear skin explants [5]): 10.5 ± 5.1 % of the applied dose
SMILES: Nc1ccc(O)cc1[N+](=O)[O-] [4‐A‐3‐NP, 4‐amino‐3‐nitrophenol]
Substrate for NAT1 [1]: not a substrate | LogP [6]: 0.41 | Maximum water solubility [6]: 2000 µg/mL

SMILES: Nc1ccc(Cl)cc1 [4‐Chloroaniline]
Radioactivity detected in the culture medium bound to proteins (skin explants): ~ 20% | % Radioactivity in culture media after 24 h [2]: 49.7 ± 4.4% | Mass balance (% of applied dose at end of incubation) [2]: 86.2 ± 0.7 % of applied dose | Skin surface radioactivity [2]: 2.2 ± 0.5 % of the applied dose | Medium radioactivity ([2]; listed as 4-Chloroaniline): 49.7 ± 4.4 % of the applied dose | Skin radioactivity ([2]; listed as 4-Chloroaniline): 34.4 ± 3.8 % of the applied dose | Medium radioactivity ([2]; listed as 4‐chloroaniline): 50 % of the applied dose | Skin radioactivity ([2]; listed as 4‐chloroaniline): 35 % of the applied dose | Metabolites detected in the skin or culture media ([3]; human skin): no metabolites were detected | Metabolites detected in the skin or culture media (pig ear skin explants [4]; pig skin): no metabolites were detected | % Radioactivity in culture media after 24 h (pig ear skin explants [5]): 54.3 ± 0.6% | Mass balance (% of applied dose at end of incubation) (pig ear skin explants [5]): 99.2 ± 10.8 % of applied dose | Skin surface radioactivity (pig ear skin explants [5]): 0.7 ± 0.2 % of the applied dose | Medium radioactivity (pig ear skin explants [5]; listed as 4-Chloroaniline): 82.1 ± 8.8 % of the applied dose | Skin radioactivity (pig ear skin explants [5]; listed as 4-Chloroaniline): 16.3 ± 2.3 % of the applied dose | Medium radioactivity (pig ear skin explants [5]; listed as 4‐chloroaniline): 82 % of the applied dose | Skin radioactivity (pig ear skin explants [5]; listed as 4‐chloroaniline): 16 % of the applied dose | Maximum water solubility [6]: 3200 µg/mL

Source: publication PMC6587507, “Comparison of the metabolism of 10 chemicals in human and pig skin explants” (Journal of Applied Toxicology, 2018)
